In test [1] the test system is PKB Ser473 phosphorylation in Rat1-myr-HA-p110 alpha cells. The test is described as follows: Reverse protein array, PKB Ser473 phosphorylation in Rat1-myr-HA-p110 alpha cells. The format is cell-based. The note with it: Rattus norvegicus, 0.5 h, 30 minutes compound incubation, read-out: p-PKB/IC50_alpha.
In test [2] the test system is PKB Ser473 phosphorylation in Rat1-myr-HA-p110 beta cells. The test is described as follows: Reverse protein array, PKB Ser473 phosphorylation in Rat1-myr-HA-p110 beta cells. The note with it: Rattus norvegicus, 0.5 h, 30 minutes compound incubation, read-out: p-PKB/IC50_beta. The format is cell-based.

Consider `COc1ccc(-c2ccc3ncc4c(c3c2)n(-c2cccnc2OC)c(=O)n4C)cn1` [Example 1.1, 1-(2-Methoxy-pyridin-3-yl)-8-(6-methoxy-pyridin-3-yl)-3-methyl-1,3-dihydro-imidazo[4,5-c]quinolin-2-one], for which the IC50 in test [1] is 42.9 nM; in test [2] it was 65 nM.
With `COc1ncccc1-n1c(=O)n(C)c2cnc3ccc(-c4cnc(N)c(C(F)(F)F)c4)cc3c21` [Example 1.3, 8-(6-Amino-5-trifluoromethyl-pyridin-3-yl)-1-(2-methoxy-pyridin-3-yl)-3-methyl-1,3-dihydro-imidazo[4,5-c]quinolin-2-one], the IC50 in test [1] worked out at 6.94 nM; in test [2], 13.9 nM.
For `CNc1ccc(-c2ccc3ncc4c(c3c2)n(-c2cccnc2OC)c(=O)n4C)cn1` [Example 1.4, 1-(2-Methoxy-pyridin-3-yl)-3-methyl-8-(6-methylamino-pyridin-3-yl)-1,3-dihydro-imidazo[4,5-c]quinolin-2-one] the same measures were 8.68 nM and 9.81 nM.
For `CCOc1ccc(-c2ccc3ncc4c(c3c2)n(-c2cccnc2OC)c(=O)n4C)cn1` [Example 1.5, 8-(6-Ethoxy-pyridin-3-yl)-1-(2-methoxy-pyridin-3-yl)-3-methyl-1,3-dihydro-imidazo[4,5-c]quinolin-2-one] the same measures were 9.35 nM and 38.8 nM.
Taken in the same sequence, the figures for `Cc1ncccc1-n1c(=O)n(C)c2cnc3ccc(-c4cnc5c(ccn5C)c4)cc3c21` [Example 2.14, 3-Methyl-1-(2-methyl-pyridin-3-yl)-8-(1-methyl-1H-pyrrolo[2,3-b]pyridin-5-yl)-1,3-dihydro-imidazo[4,5-c]quinolin-2-one] were 7.38 nM and 13.1 nM.
For `CCOc1cc(-c2ccc3ncc4c(c3c2)n(-c2cccnc2C)c(=O)n4C)cnc1C` [Example 2.22, 8-(5-Ethoxy-6-methyl-pyridin-3-yl)-3-methyl-1-(2-methyl-pyridin-3-yl)-1,3-dihydro-imidazo[4,5-c]quinolin-2-one], the IC50 in test [1] came to 11 nM; in test [2], 22.5 nM.
On to `Cc1cccnc1-n1c(=O)n(C)c2cnc3ccc(-c4cnc5ccccc5c4)cc3c21` [Example 3.8, 3-Methyl-1-(3-methyl-pyridin-2-yl)-8-quinolin-3-yl-1,3-dihydro-imidazo[4,5-c]quinolin-2-one], for which the IC50 in test [1] came out at 54.9 nM; in test [2], 108 nM.
Taken in the same sequence, the figures for `COc1ccc(-c2ccc3ncc4c(c3c2)n(-c2ncccc2C)c(=O)n4C)cn1` [Example 3.13, 8-(6-Methoxy-pyridin-3-yl)-3-methyl-1-(3-methyl-pyridin-2-yl)-1,3-dihydro-imidazo[4,5-c]quinolin-2-one] were 308 nM and 945 nM.
For `COc1ccc(-c2ccc3ncc4c(c3c2)n(-c2cccnc2)c(=O)n4C)cc1OC` [Example 5.2, 8-(3,4-Dimethoxy-phenyl)-3-methyl-1-pyridin-3-yl-1,3-dihydro-imidazo[4,5-c]quinolin-2-one] the same measures were 18.1 nM and 50.3 nM.
Taken in the same sequence, the figures for `COc1ccc(-c2ccc3ncc4c(c3c2)n(-c2cccnc2)c(=O)n4C)cn1` [Example 5.4, 8-(6-Methoxy-pyridin-3-yl)-3-methyl-1-pyridin-3-yl-1,3-dihydro-imidazo[4,5-c]quinolin-2-one] were 92.4 nM and 152 nM.
`COc1ccc(-n2c(=O)n(C)c3cnc4ccc(-c5cnc(N)c(C(F)(F)F)c5)cc4c32)c(OC)n1` [Example 8.1, 8-(6-Amino-5-trifluoromethyl-pyridin-3-yl)-1-(2,6-dimethoxy-pyridin-3-yl)-3-methyl-1,3-dihydro-imidazo[4,5-c]quinolin-2-one]: the figures for the IC50 in test [1] and in test [2] were 7.27 nM and 12.8 nM, respectively.
As for `COCCOc1cc(-c2ccc3ncc4c(c3c2)n(-c2ccc(OC)nc2OC)c(=O)n4C)cnc1C` [Example 8.9, 1-(2,6-Dimethoxy-pyridin-3-yl)-8-[5-(2-methoxy-ethoxy)-6-methyl-pyridin-3-yl]-3-methyl-1,3-dihydro-imidazo[4,5-c]quinolin-2-one], the values for the IC50 in test [1] and in test [2] were 24.9 nM and 39.5 nM, respectively.
For `CCN(C)c1ccc(-n2c(=O)n(C)c3cnc4ccc(-c5ccc(NC)nc5)cc4c32)c(C)n1` [Example 12.1, 1-[6-(Ethyl-methyl-amino)-2-methyl-pyridin-3-yl]-3-methyl-8-(6-methylamino-pyridin-3-yl)-1,3-dihydro-imidazo[4,5-c]quinolin-2-one] the same measures were 5.2 nM and under 4.57 nM.
For `Cc1ccc(-n2c(=O)n(C)c3cnc4ccc(-c5cnc(N)c(C(F)(F)F)c5)cc4c32)c(C)n1` [Example 14.5, 8-(6-Amino-5-trifluoromethyl-pyridin-3-yl)-1-(2,6-dimethyl-pyridin-3-yl)-3-methyl-1,3-dihydro-imidazo[4,5-c]quinolin-2-one] the same measures were 4.9 nM and 10.8 nM.
With `Cc1ccc(-n2c(=O)n(C)c3cnc4ccc(-c5cnc6c(ccn6C)c5)cc4c32)c(C)n1` [Example 14.7, 1-(2,6-Dimethyl-pyridin-3-yl)-3-methyl-8-(1-methyl-1H-pyrrolo[2,3-b]pyridin-5-yl)-1,3-dihydro-imidazo[4,5-c]quinolin-2-one], the IC50 in test [1] was found to be 11.5 nM; in test [2], 20.8 nM.
Taken in the same sequence, the figures for `COCCN(C)c1ccc(-n2c(=O)n(C)c3cnc4ccc(-c5cnc(N)c(C(F)(F)F)c5)cc4c32)c(C)n1` [Example 15.1, 8-(6-Amino-5-trifluoromethyl-pyridin-3-yl)-1-{6-[(2-methoxy-ethyl)-methyl-amino]-2-methyl-pyridin-3-yl}-3-methyl-1,3-dihydro-imidazo[4,5-c]quinolin-2-one] were under 4.57 nM and 6.1 nM.
As for `CCOc1ccc(-c2ccc3ncc4c(c3c2)n(-c2ccc(N(C)CCOC)nc2C)c(=O)n4C)cn1` [Example 15.3, 8-(6-Ethoxy-pyridin-3-yl)-1-{6-[(2-methoxy-ethyl)-methyl-amino]-2-methyl-pyridin-3-yl}-3-methyl-1,3-dihydro-imidazo[4,5-c]quinolin-2-one], the IC50 came to 12.3 nM in test [1] and 27.9 nM in test [2].
For `CNc1ccc(-c2ccc3ncc4c(c3c2)n(-c2ccc(N(C)CCOC)nc2C)c(=O)n4C)cn1` [Example 15.4, 1-{6-[(2-Methoxy-ethyl)-methyl-amino]-2-methyl-pyridin-3-yl}-3-methyl-8-(6-methylamino-pyridin-3-yl)-1,3-dihydro-imidazo[4,5-c]quinolin-2-one] the same measures were 7.2 nM and 15.1 nM.
Taken in the same sequence, the figures for `COCCN(C)c1ccc(-n2c(=O)n(C)c3cnc4ccc(-c5cnc(N(C)C)nc5)cc4c32)c(C)n1` [Example 15.5, 8-(2-Dimethylamino-pyrimidin-5-yl)-1-{6-[(2-methoxy-ethyl)-methyl-amino]-2-methyl-pyridin-3-yl}-3-methyl-1,3-dihydro-imidazo[4,5-c]quinolin-2-one] were 40.7 nM and 132 nM.
For `COCCN(C)c1ccc(-n2c(=O)n(C)c3cnc4ccc(-c5cnc(CO)c(OC)c5)cc4c32)c(C)n1` [Example 15.9, 8-(6-Hydroxymethyl-5-methoxy-pyridin-3-yl)-1-{6-[(2-methoxy-ethyl)-methyl-amino]-2-methyl-pyridin-3-yl}-3-methyl-1,3-dihydro-imidazo[4,5-c]quinolin-2-one] the same measures were 10.8 nM and 40.4 nM.

These data come from patent publication US20100311714A1, “1H-IMIDAZO[4,5-c]QUINOLINONE COMPOUNDS” (priority 2009, published 2010).
